In US11939314B2, “Quinolin-2-one derivatives” (MERCK PATENT GMBH, priority 2016, dated 2024):

Molecular target: T1, c-Kit(V654A) (Homo sapiens, UniProt P10721, V654A)
T1 construct: amino acids 544-end containing the V654A mutation; GST (N)
Experiment: c-Kit(V654A) assay
Assay type: biochemical
Settings: recombinant human c-Kit aa 544-end, 200 μM ATP, 1.4E-06 means 1.4×10^−6, read-out: Inhibition (IC50) of c-KIT (V654A)
Experimental: c-Kit(V654A) (N-terminal GST-tagged, recombinant human c-Kit, amino acids 544-end containing the V654A mutation) is incubated with 8 mM MOPS pH 7.0, 0.2 mM EDTA, 250 μM GGMEDIYEFMGGKKK, 10 mM MgAcetate and [gamma-33P-ATP] (specific activity approx. 500 cpm/pmol, concentration 200 μM). The reaction is initiated by the addition of the MgATP mix. After incubation for 40 minutes at room temperature, the reaction is stopped by the addition of 3% phosphoric acid solution. 10 μL of the reaction is then spotted onto a P30 filtermat and washed three times for 5 minutes in 75 mM phosphoric acid and once in methanol prior to drying and scintillation counting.

T1 sequence (P10721 544-976 V654A): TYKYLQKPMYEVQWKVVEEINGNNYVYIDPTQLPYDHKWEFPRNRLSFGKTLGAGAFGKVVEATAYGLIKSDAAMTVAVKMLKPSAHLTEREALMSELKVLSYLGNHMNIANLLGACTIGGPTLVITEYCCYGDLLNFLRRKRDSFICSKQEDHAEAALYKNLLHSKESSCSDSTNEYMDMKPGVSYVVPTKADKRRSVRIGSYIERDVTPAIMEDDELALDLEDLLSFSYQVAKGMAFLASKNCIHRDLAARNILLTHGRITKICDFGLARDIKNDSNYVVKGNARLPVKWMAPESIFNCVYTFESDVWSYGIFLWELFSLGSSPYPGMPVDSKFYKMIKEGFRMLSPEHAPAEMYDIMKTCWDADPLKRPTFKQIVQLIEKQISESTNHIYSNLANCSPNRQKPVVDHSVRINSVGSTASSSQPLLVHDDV

SMILES | IC50
CO[C@H]1CCN(C(=O)c2cc(-n3cc(-c4cc5cc(F)ccc5[nH]c4=O)nn3)cs2)C1 [A350, 6-fluoro-3-{1-[5-((S)-3-methoxy-pyrrolidine-1-carbonyl)-thiophen-3-yl]-1H-[1,2,3]triazol-4-yl}-1H-quinolin-2-one] | 16 nM
CO[C@H](C)C(=O)N(C)c1ccc(-n2cc(-c3cc4cc(F)ccc4[nH]c3=O)nn2)cc1 [A346, (R)—N-{4-[4-(6-fluoro-2-oxo-1,2-dihydro-quinolin-3-yl)-[1,2,3]triazol-1-yl]-phenyl}-2-methoxy-N-methyl-propionamide] | 16 nM
CO[C@@H]1CN[C@H](C(=O)N(C)c2ccc(-n3cc(-c4cc5cc(F)ccc5[nH]c4=O)nn3)cc2)C1 [A347, (2S,4S)-4-methoxy-pyrrolidine-2-carboxylic acid {4-[4-(6-fluoro-2-oxo-1,2-dihydro-quinolin-3-yl)-[1,2,3]triazol-1-yl]-phenyl}-methyl-amide] | 26 nM
CN1CCC(Cc2ccc(-n3cc(-c4cc5cc(Cl)ccc5[nH]c4=O)nn3)cc2)CC1 [A374, 6-chloro-3-{1-[4-(1-methyl-piperidin-4-ylmethyl)-phenyl]-1H-[1,2,3]triazol-4-yl}-1H-quinolin-2-one] | 17 nM
CN1CC[C@H](Oc2ccc(-n3cc(-c4cc5cc(F)c(F)cc5[nH]c4=O)nn3)cc2)C1 [A372, 6,7-difluoro-3-{1-[4-((S)-1-methyl-pyrrolidin-3-yloxy)-phenyl]-1H-[1,2,3]triazol-4-yl}-1H-quinolin-2-one] | 21 nM
CO[C@@H]1CCN(C(=O)c2cc(-n3cc(-c4cc5cc(F)ccc5[nH]c4=O)nn3)cs2)C1 [A351, 6-fluoro-3-{1-[5-((R)-3-methoxy-pyrrolidine-1-carbonyl)-thiophen-3-yl]-1H-[1,2,3]triazol-4-yl}-1H-quinolin-2-one] | 14 nM
Cc1c(-c2cn(-c3ccc(C(=O)N4CCOCC4)cc3)nn2)c(=O)[nH]c2ccccc12 [A185, 4-methyl-3-{1-[4-(morpholine-4-carbonyl)-phenyl]-1H-[1,2,3]triazol-4-yl}-1H-quinolin-2-one] | 510 nM
CN1C[C@H]2CCN(C(=O)c3ccc(-n4cc(-c5cc6cc(F)ccc6[nH]c5=O)nn4)cc3)[C@H]2C1 [A291, 6-fluoro-3-{1-[4-((3aR,6aR)-5-methyl-hexahydro-pyrrolo[3,4-b]pyrrole-1-carbonyl)-phenyl]-1H-[1,2,3]triazol-4-yl}-1H-quinolin-2-one] | 7.5 nM
CO[C@H]1CCN(S(=O)(=O)c2ccc(-n3cc(-c4cc5cc(Cl)ccc5[nH]c4=O)nn3)cc2)C1 [A361, 6-chloro-3-{1-[4-((S)-3-methoxy-pyrrolidine-1-sulfonyl)-phenyl]-1H-[1,2,3]triazol-4-yl}-1H-quinolin-2-one] | 11 nM
CO[C@@H](C)C(=O)N(C)c1ccc(-n2cc(-c3cc4cc(F)ccc4[nH]c3=O)nn2)cc1 [A348, (S)—N-{4-[4-(6-fluoro-2-oxo-1,2-dihydro-quinolin-3-yl)-[1,2,3]triazol-1-yl]-phenyl}-2-methoxy-N-methyl-propionamide] | 16 nM
Cn1cc(C2CCCN2C(=O)c2ccc(-n3cc(-c4cc5cc(F)ccc5[nH]c4=O)nn3)cc2)cn1 (stereo not shown) [A285, 6-fluoro-3-(1-{4-[2-(1-methyl-1H-pyrazol-4-yl)-pyrrolidine-1-carbonyl]-phenyl}-1H-[1,2,3]triazol-4-yl)-1H-quinolin-2-one] | 5.6 nM

The next lines start with the values.

IC50 | SMILES
17 nM | CS(=O)(=O)CC1CCN(C(=O)c2ccc(-n3cc(-c4cc5cc(F)ccc5[nH]c4=O)nn3)cc2)C1 (stereo not shown) [A284, 6-fluoro-3-{1-[4-(3-methanesulfonylmethyl-pyrrolidine-1-carbonyl)-phenyl]-1H-[1,2,3]triazol-4-yl}-1H-quinolin-2-one]
4.9 nM | CN1CCC(Oc2ccc(-n3cc(-c4cc5cc(Cl)ccc5[nH]c4=O)nn3)cc2)CC1 [A376, 6-chloro-3-{1-[4-(1-methyl-piperidin-4-yloxy)-phenyl]-1H-[1,2,3]triazol-4-yl}-1H-quinolin-2-one]
16 nM | CO[C@@H]1CCC[C@H]1Oc1ccc(-n2cc(-c3cc4cc(F)ccc4[nH]c3=O)nn2)cc1 [A362, 6-fluoro-3-{1-[4-((1S,25)-2-methoxy-cyclopentyloxy)-phenyl]-1H-[1,2,3]triazol-4-yl}-1H-quinolin-2-one]
9.2 nM | CN(C)C1CN(C(=O)c2ccc(-n3cc(-c4cc5cc(F)ccc5[nH]c4=O)nn3)cc2)CC1(F)F (stereo not shown) [A339, 3-{1-[4-(4-dimethylamino-3,3-difluoro-pyrrolidine-1-carbonyl)-phenyl]-1H-[1,2,3]triazol-4-yl}-6-fluoro-1H-quinolin-2-one]
16 nM | CN1CCN(C(=O)c2ccc(-n3cc(-c4cc5cc(F)c(F)cc5[nH]c4=O)cn3)cc2)CC1 [A304, 6,7-difluoro-3-{1-[4-(4-methyl-piperazine-1-carbonyl)-phenyl]-1H-pyrazol-4-yl}-1H-quinolin-2-one]
25 nM | CN1CC2(CCN(C(=O)c3ccc(-n4cc(-c5cc6cc(F)ccc6[nH]c5=O)nn4)cc3)C2)C1 [A289, 6-fluoro-3-{1-[4-(2-methyl-2,6-diaza-spiro[3.4]octane-6-carbonyl)-phenyl]-1H-[1,2,3]triazol-4-yl}-1H-quinolin-2-one]
16 nM | CS(=O)(=O)[C@@H]1CCN(C(=O)c2ccc(-n3cc(-c4cc5cc(F)ccc5[nH]c4=O)nn3)cc2)C1 [A282, 6-fluoro-3-{1-[4-((R)-3-methanesulfonyl-pyrrolidine-1-carbonyl)-phenyl]-1H-[1,2,3]triazol-4-yl}-1H-quinolin-2-one]
15 nM | CN1CC[C@@H](Oc2ccc(-n3cc(-c4cc5cc(F)c(F)cc5[nH]c4=O)nn3)cc2)C1 [A373, 6,7-difluoro-3-{1-[4-((R)-1-methyl-pyrrolidin-3-yloxy)-phenyl]-1H-[1,2,3]triazol-4-yl}-1H-quinolin-2-one]
7.7 nM | CN1CCN(C(=O)c2ccc(-n3cc(-c4cc5cc(Cl)ccc5[nH]c4=O)cn3)cc2)CC1 [A305, 6-chloro-3-{1-[4-(4-methyl-piperazine-1-carbonyl)-phenyl]-1H-pyrazol-4-yl}-1H-quinolin-2-one]
6.5 nM | CC1CCCN1C(=O)c1ccc(-n2cc(-c3cc4cc(F)ccc4[nH]c3=O)nn2)cc1 (stereo not shown) [A288, 6-fluoro-3-{1-[4-(2-methyl-pyrrolidine-1-carbonyl)-phenyl]-1H-[1,2,3]triazol-4-yl}-1H-quinolin-2-one]
490 nM | O=c1[nH]c2ncccc2cc1-c1cn(-c2ccc(CO)cc2)nn1 [A7, 3-[1-(4-hydroxymethyl-phenyl)-1H-[1,2,3]triazol-4-yl]-1H-[1,8]naphthyridin-2-one]
21 nM | O=c1[nH]c2ccc(F)cc2cc1-c1cn(-c2ccc(OC3CCCC3)cc2)nn1 [A364, 3-[1-(4-cyclopentyloxy-phenyl)-1H-[1,2,3]triazol-4-yl]-6-fluoro-1H-quinolin-2-one]
9.5 nM | CN1CCC(Oc2ccc(-n3cc(-c4cc5cc(F)ccc5[nH]c4=O)nn3)cc2)CC1 [A375, 6-fluoro-3-{1-[4-(1-methyl-piperidin-4-yloxy)-phenyl]-1H-[1,2,3]triazol-4-yl}-1H-quinolin-2-one]
14 nM | CN1CC2(CCN(C(=O)c3ccc(-n4cc(-c5cc6cc(Cl)ccc6[nH]c5=O)nn4)cc3)C2)C1 [A290, 6-chloro-3-{1-[4-(2-methyl-2,6-diaza-spiro[3.4]octane-6-carbonyl)-phenyl]-1H-[1,2,3]triazol-4-yl}-1H-quinolin-2-one]
